# Laboratory results: patent US20080293699A1, “Inhibitors of thapsigargin-induced cell death” (priority 2007, published 2008)
# Experiments:
# CSM14.1 cells = test: Annexin V staining viability assay (flow cytometry), thapsigargin-treated undifferentiated CSM14.1 cells; format: cell-based, rat; conditions: hit compounds 25 μM, TG 15 μM
# Procedure: Undifferentiated CSM14.1 cells were cultured as for FIG. 16. The next day, DMSO (a, b) (1% final volume), 100 μM Salubrinal (c, d) or 25 μM of hit compounds (1% final DMSO) was added. After two hrs, 15 μM TG was added to all wells except a and c. The plates were returned to culture for 24 hrs, then cells were recovered by trypsinization, transferred to 1.5 ml microcentrifuge tubes, and resuspended in 0.5 mL of Annexin V-binding solution. The percentage of annexin V-negative cells was determined by flow-cytometry (y-axis). Treatments and compounds were the same as in FIG. 16.
# One method we have employed, for example, for confirming protection against TG-induced killing uses fluorochrome-conjugated annexin V staining with flow-cytometry analysis to evaluate the percentage cell viability by a method that is independent of the ATP content assay.
# FIGS. 16 and 17 show the results of a secondary assay for evaluating the cytoprotective activity of the compounds. In FIG. 16, undifferentiated CSM14.1 cells were cultured at 10^4 cells per well of 24-well plates (Greiner Bio One). The next day, DMSO (a, b) (1% final volume), 100 μM Salubrinal (c, d) or 25 μM of hit compounds (1% final DMSO) was added. After two hrs, 15 μM TG was added to all wells except a and c. A conventional ATP assay was performed to measure survival rate. In FIG. 17 undifferentiated CSM14.1 cells were cultured at 10^4 cells per well of 24-well plates (Greiner Bio One). The next day, DMSO (a, b) (1% final volume), 100 μM Salubrinal (c, d) or 25 μM of hit compounds (1% final DMSO) was added. After two hrs, 15 μM TG was added to all wells except a and c. […] The percentage of annexin V-negative cells was determined by flow-cytometry (y-axis), using a FACSort instrument (Beckton-Dickinson). […]
# 7) The percentage of annexin V-negative cells was determined by flow-cytometry (y-axis), using a FACSort analysis facility in Burnham (Beckton & Dickinson)
# [1] = test system: mouse neural stem cell C17.2; test: Thapsigargin-induced death of C17.2 cells (undifferentiated and differentiated), ATP content assay; format: cell-based
# Procedure: In addition to CSM14.1 cells, when tested at 25 μM, Compound 5962123 protected by >50% against thapsigargin-induced death of several tumor cell lines (HeLa human cervical cancer, SW1 melanoma cell, PPC1, human prostate cancer), mouse neural stem cell C17.2 (both differentiated [neuronal phenotype] and non-differentiated [stem cell phenotype]) as determined by ATP content assay, and primary rat cortical neurons as determined by microscopy assay measuring the percentage of NeuN-immunopositive cells with either normal or apoptotic nuclear morphology (Hoechst dye staining).
# For PC12, cells were stimulated with 20 ng/ml NGF for five days; for C17.2, cells were stimulated with serum reduction, and 1% N2 incubation for three days; for CSM14.1, cells were cultured at 39° C. for 5-7 days.
# [2] = test system: protein phosphatase 2B (Calcineurin); test: In vitro phosphatase assay with immunoprecipitated ASK1 (ser 967 site) as substrate; format: biochemical; conditions: 100 μM
smiles,measurement,setting,value
"CCN(CC)c1ccc(C2Nc3ccccc3NC3=C2C(=O)CC(c2ccccc2)C3)cc1 (stereo not shown) [Compound 5962123, 6-(4-diethylaminophenyl)-9-phenyl-5,6,8,9,10,11-hexahydrobenzo[c][1,5]benzodiazepin-7-one]",Protection against TG-induced cell death measured by annexin V staining,CSM14.1 cells,confirmed
same,Activity in differentiated C17.2 cells treated with thapsigargin,"[1]; 25 μM, ATP content assay",confirmed
same,"Protection against thapsigargin-induced death, C17.2","[1]; 25 μM, both differentiated and non-differentiated, ATP content assay",> 50%
same,"Cytoprotective activity, C17.2 diff (Result)","[1]; differentiated, thapsigargin 10 μM, ATP content, compound ≦25 μM",+ (+indicates >50% rescue of cell viability relative to untreated cells not exposed to thapsigargin at compound concentration of ≦25 μM)
same,"Cytoprotective activity, C17.2 (Result)","[1]; undifferentiated, thapsigargin 10 μM, ATP content, compound ≦25 μM",+ (+indicates >50% rescue of cell viability relative to untreated cells not exposed to thapsigargin at compound concentration of ≦25 μM)
same,Activity of protein phosphatase 2B (Calcineurin),[2],did not affect
same,Final DMSO concentration needed in culture media to avoid a visible cloudy precipitate,,at least 0.2 % (v/v)
